Biological target: T1, human Cereblon WT GST-tagged protein (Homo sapiens, UniProt Q96SW2)
T1 construct: purchased CISBIO 64BDCRBNPEH
Experiment: CRBN-binding affinity, HTRF (CEREBLON BINDING kit)
Conditions: for IC50: CRBN binding, HTRF, 3 hours at room temperature, read-out: HTRF IC50; for inhibition at 0.5 µM: read-out: Inhibition Rate at 0.5 µM (%); for inhibition at 2 µM: read-out: Inhibition Rate at 2 µM (%)
Method: The CEREBLON BINDING kits (specification: 10,000 tests; product number: Catalog # 64BDCRBNPEH; CISBIO company) was used to determine the CRBN binding ability of the compounds to be tested through a HTRF method (homogeneous time-resolved fluorescence). The specific methods are as follows: • 1. […] Specifically, diluent #9 (1X) solution was used as the diluent, and multiple concentration gradients were set. […] Then, 2.5 µL of human Cereblon WT GST-tagged protein solution was added to each well. Finally, 5 µL of the thoroughly mixed Thalidomide-Re reagent and GST Eu antibody working solution were added to each of the aforementioned wells. […] The blank control wells were sequentially added with 2.5 µL of diluent #9 (1X) solution, 2.5 µL of PROTAC binding buffer, and 5 µL of thoroughly mixed Thalidomide-Re reagent and GST Eu antibody working solution. • 4.

T1 sequence (Q96SW2 whole entry): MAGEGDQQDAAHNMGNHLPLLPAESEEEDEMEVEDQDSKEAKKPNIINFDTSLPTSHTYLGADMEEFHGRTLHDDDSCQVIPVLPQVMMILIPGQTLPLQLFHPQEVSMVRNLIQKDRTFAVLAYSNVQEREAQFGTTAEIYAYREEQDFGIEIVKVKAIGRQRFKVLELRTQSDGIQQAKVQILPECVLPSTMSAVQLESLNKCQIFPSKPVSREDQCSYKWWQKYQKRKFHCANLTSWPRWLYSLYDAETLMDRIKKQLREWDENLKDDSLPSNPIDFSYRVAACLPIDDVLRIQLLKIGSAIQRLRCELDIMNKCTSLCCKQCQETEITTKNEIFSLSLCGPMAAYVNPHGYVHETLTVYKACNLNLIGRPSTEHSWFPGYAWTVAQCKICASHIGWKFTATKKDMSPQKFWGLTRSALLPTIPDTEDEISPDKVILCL

IC50 [nM] | inhibition at 0.5 µM [%] | inhibition at 2 µM [%] | Structure (SMILES)
100 to 500 | – | – | O=C1CCC(N2Cc3ccc(CN4CCc5sccc5C4)cc3C2=S)C(=O)N1 (stereo not shown) [GT-05039, 3-(6-((6,7-dihydrothieno[3,2-c]pyridin-5(4H)-yl)methyl)-1-thioxoisoindolin-2-yl)piperidine-2,6-dione]
100 to 500 | – | – | O=C1CCC(N2Cc3ccc(CN4CCN(c5nsc6ccccc56)CC4)cc3C2=S)C(=O)N1 (stereo not shown) [GT-05040, 3-(6-((4-(benzo[d]isothiazol-3-yl)piperazin-1-yl)methyl)-1-thioxoisoindolin-2-yl)piperidine-2,6-dione]
100 to 500 | – | – | O=C1CCC(N2Cc3cc(CN4CCn5c(nnc5C(F)(F)F)C4)ccc3C2=S)C(=O)N1 (stereo not shown) [GT-05090, 3-(1-thioxo-5-((3-(trifluoromethyl)-5,6-dihydro-[1,2,4]triazolo[4,3-a]pyrazin-7(8H)-yl)methyl)isoindolin-2-yl)piperidine-2,6-dione]
< 100 | – | – | O=C1CCC(N2Cc3cc(CN4CCN(c5nsc6ccccc56)CC4)ccc3C2=S)C(=O)N1 (stereo not shown) [GT-05091, 3-(5-((4-(benzo[d]isothiazol-3-yl)piperazin-1-yl)methyl)-1-thioxoisoindolin-2-yl)piperidine-2,6-dione]
< 100 | – | – | O=C1CCC(N2Cc3cc(CN4CCc5sccc5C4)ccc3C2=S)C(=O)N1 (stereo not shown) [GT-05093, 3-(5-((6,7-dihydrothieno[3,2-c]pyridin-5(4H)-yl)methyl)-1-thioxoisoindolin-2-yl)piperidine-2,6-dione]
< 100 | – | – | O=C1CCC(N2Cc3c(CO)cccc3C2=S)C(=O)N1 (stereo not shown) [GT-06981, 3-(4-(hydroxymethyl)-1-thioxoisoindolin-2-yl)piperidine-2,6-dione]
– | 60 to 80 | 80 to 100 | O=C1CCC(N2Cc3cc(CN4CCN(C(=O)C5=C(c6ccc(F)cc6)CCCC5)CC4)ccc3C2=S)C(=O)N1 (stereo not shown) [GT-08165, 3-(5-((4-(4'-fluoro-3,4,5,6-tetrahydro-[1,1'-biphenyl]-2-carbonyl)piperazin-1-yl)methyl)-1-thioxoisoindolin-2-yl)piperidine-2,6-dione]
– | 60 to 80 | 80 to 100 | O=C1CCC(N2Cc3c(CN4CCN(C(c5ccccc5)c5ccccn5)CC4)cccc3C2=S)C(=O)N1 (stereo not shown) [GT-08192, 3-(4-((4-(phenyl(pyridin-2-yl)methyl)piperazin-1-yl)methyl)-1-thioxoisoindolin-2-yl)piperidine-2,6-dione]
– | 40 to 53 | 80 to 100 | O=C1CCC(N2Cc3c(CN4CCN(C(c5ccccn5)c5ccccn5)CC4)cccc3C2=S)C(=O)N1 (stereo not shown) [GT-08201, 3-(4-((4-(di(pyridin-2-yl)methyl)piperazin-1-yl)methyl)-1-thioxoisoindolin-2-yl)piperidine-2,6-dione]
– | 53 to 60 | 80 to 100 | O=C1CCC(N2Cc3c(CN4CC5CCC4CN5C(c4ccccc4)c4ccccc4)cccc3C2=S)C(=O)N1 (stereo not shown) [GT-08233, 3-(4-((5-benzhydryl-2,5-diazabicyclo[2.2.2]octan-2-yl)methyl)-1-thioxoisoindolin-2-yl)piperidine-2,6-dione]
– | 40 to 53 | 80 to 100 | O=C1CCC(N2Cc3cc(CN4CCN(c5ccc(C(F)(F)F)cc5)CC4)ccc3C2=S)C(=O)N1 (stereo not shown) [GT-08239, 3-(1-thioxo-5-((4-(4-(trifluoromethyl)phenyl)piperazin-1-yl)methyl)isoindolin-2-yl)piperidine-2,6-dione]
– | 30 to 40 | 60 to 80 | O=C1CCC(N2Cc3c(CN4CCN(c5cccc(Br)c5)CC4)cccc3C2=S)C(=O)N1 (stereo not shown) [GT-08261, 3-(4-((4-(3-bromophenyl)piperazin-1-yl)methyl)-1-thioxoisoindolin-2-yl)piperidine-2,6-dione]
– | 30 to 40 | 60 to 80 | O=C1CCC(N2Cc3c(CN4CCN(Cc5ccccc5-c5ccc(Cl)cc5)CC4)cccc3C2=S)C(=O)N1 (stereo not shown) [GT-08295, 3-(4-((4-((4'-chloro-[1,1'-biphenyl]-2-yl)methyl)piperazin-1-yl)methyl)-1-thioxoisoindolin-2-yl)piperidine-2,6-dione]
– | 40 to 53 | 60 to 80 | CC1(C)CC(c2ccc(Cl)cc2)=C(CN2CCN(Cc3cccc4c3CN(C3CCC(=O)NC3=O)C4=S)CC2)CO1 (stereo not shown) [GT-08296, 3-(4-((4-((4-(4-chlorophenyl)-6,6-dimethyl-5,6-dihydro-2H-pyran-3-yl)methyl)piperazin-1-yl)methyl)-1-thioxoisoindolin-2-yl)piperidine-2,6-dione]
– | 60 to 80 | 80 to 100 | O=C1CCC(N2Cc3c(CN4CCN(c5cccs5)CC4)cccc3C2=S)C(=O)N1 (stereo not shown) [GT-08297, 3-(4-((4-(thiophen-2-yl)piperazin-1-yl)methyl)-1-thioxoisoindolin-2-yl)piperidine-2,6-dione]
– | 30 to 40 | 60 to 80 | Cc1ccc(N2CCN(Cc3ccc4c(c3)CN(C3CCC(=O)NC3=O)C4=S)CC2)c(C)c1 (stereo not shown) [GT-08614, 3-(5-((4-(2,4-dimethylphenyl)piperazin-1-yl)methyl)-1-thioxoisoindolin-2-yl)piperidine-2,6-dione]
– | 53 to 60 | 80 to 100 | O=C1CCC(N2Cc3c(CN4CCN(c5ncccc5C(F)(F)F)CC4)cccc3C2=S)C(=O)N1 (stereo not shown) [GT-08700, 3-(1-thioxo-4-((4-(3-(trifluoromethyl)pyridin-2-yl)piperazin-1-yl)methyl)isoindolin-2-yl)piperidine-2,6-dione]
– | 53 to 60 | 80 to 100 | Cc1cc(N2CCN(Cc3cccc4c3CN(C3CCC(=O)NC3=O)C4=S)CC2)ccn1 (stereo not shown) [GT-08727, 3-(4-((4-(2-methylpyridin-4-yl)piperazin-1-yl)methyl)-1-thioxoisoindolin-2-yl)piperidine-2,6-dione]
– | 60 to 80 | 80 to 100 | O=C1CCC(N2Cc3c(CN4CCN(c5ccnc(F)c5F)CC4)cccc3C2=S)C(=O)N1 (stereo not shown) [GT-08736, 3-(4-((4-(2,3-difluoropyridin-4-yl)piperazin-1-yl)methyl)-1-thioxoisoindolin-2-yl)piperidine-2,6-dione]
– | 60 to 80 | 80 to 100 | O=C1CCC(N2Cc3c(CN4CCC(c5noc6ccccc56)CC4)cccc3C2=S)C(=O)N1 (stereo not shown) [GT-08816, 3-(4-((4-(benzo[d]isoxazol-3-yl)piperidin-1-yl)methyl)-1-thioxoisoindolin-2-yl)piperidine-2,6-dione]
– | 40 to 53 | 80 to 100 | O=C1CCC(N2Cc3c(CN4CCC(C5CCOc6cc(F)ccc65)CC4)cccc3C2=S)C(=O)N1 (stereo not shown) [GT-08854, 3-(4-((4-(7-fluorochroman-4-yl)piperidin-1-yl)methyl)-1-thioxoisoindolin-2-yl)piperidine-2,6-dione]
– | 30 to 40 | 80 to 100 | Cc1nc(N2CCN(Cc3cccc4c3CN(C3CCC(=O)NC3=O)C4=S)CC2)c2c(-c3ccccc3)csc2n1 (stereo not shown) [GT-08921, 3-(4-((4-(2-methyl-5-phenylthieno[2,3-d]pyrimidin-4-yl)piperazin-1-yl)methyl)-1-thioxoisoindolin-2-yl)piperidine-2,6-dione]
– | 60 to 80 | 80 to 100 | O=C1CCC(N2Cc3c(CN4CCN(c5nc6c(c(N7CCOCC7)n5)SCC6)CC4)cccc3C2=S)C(=O)N1 (stereo not shown) [GT-08969, 3-(4-((4-(4-morpholino-6,7-dihydrothieno[3,2-d]pyrimidin-2-yl)piperazin-1-yl)methyl)-1-thioxoisoindolin-2-yl)piperidine-2,6-dione]
– | 40 to 53 | 60 to 80 | O=C1CCC(N2Cc3c(CN4CCC(Nc5ccccc5-c5ccc(Cl)cc5)CC4)cccc3C2=S)C(=O)N1 (stereo not shown) [GT-09034, 3-(4-((4-((4'-chloro-[1,1'-biphenyl]-2-yl)amino)piperidin-1-yl)methyl)-1-thioxoisoindolin-2-yl)piperidine-2,6-dione]
– | 60 to 80 | 80 to 100 | O=C1CCC(N2Cc3c(CN4CCN(c5nc6c(c(N7CCNCC7)n5)SCC6)CC4)cccc3C2=S)C(=O)N1 (stereo not shown) [GT-09035, 3-(4-((4-(4-(piperazin-1-yl)-6,7-dihydrothieno[3,2-d]pyrimidin-2-yl)piperazin-1-yl)methyl)-1-thioxoisoindolin-2-yl)piperidine-2,6-dione]

Structure (SMILES) | IC50 [nM] | inhibition at 0.5 µM [%] | inhibition at 2 µM [%]
O=C1CCC(N2Cc3cc(CN4CC5CCC(C4)N5C(c4ccccc4)c4ccccc4)ccc3C2=S)C(=O)N1 (stereo not shown) [GT-07849, 3-(5-((8-benzhydryl-3,8-diazabicyclo[3.2.1]octan-3-yl)methyl)-1-thioxoisoindolin-2-yl)piperidine-2,6-dione] | – | 30 to 40 | 60 to 80
O=C1CCC(N2Cc3c(CN4CC5CCC(C4)N5C(c4ccccc4)c4ccccc4)cccc3C2=S)C(=O)N1 (stereo not shown) [GT-08234, 3-(4-((8-benzhydryl-3,8-diazabicyclo[3.2.1]octan-3-yl)methyl)-1-thioxoisoindolin-2-yl)piperidine-2,6-dione] | – | 40 to 53 | 60 to 80
O=C1CCC(N2Cc3c(CN4CCC(N(c5ccccc5)c5ccccn5)CC4)cccc3C2=S)C(=O)N1 (stereo not shown) [GT-08243, 3-(4-((4-(phenyl(pyridin-2-yl)amino)piperidin-1-yl)methyl)-1-thioxoisoindolin-2-yl)piperidine-2,6-dione] | – | 20 to 30 | 60 to 80
O=C1CCC(N2Cc3c(CN4CC=C(c5cccs5)CC4)cccc3C2=S)C(=O)N1 (stereo not shown) [GT-08299, 3-(4-((4-(thiophen-2-yl)-3,6-dihydropyridin-1 (2H)-yl)methyl)-1-thioxoisoindolin-2-yl)piperidine-2,6-dione] | – | 53 to 60 | 60 to 80
